Results on 29 compounds are retold here after patent US4016159A, “Acylamino-cephem-carboxylic acids containing an amidino or guanidino group in the molecule” (Hoechst Aktiengesellschaft, priority 1973, dated 1977).

≈ marks a conversion by molar mass, not a printed value. Like-named read-outs stand apart in the source and are kept apart here.

Assay type in all cases: cell-based
The test system of assay [1] is Streptococcus pyogenes A. Description: Minimum inhibition concentration (MIC), Table 3. Particulars: Germ: Streptococcus pyogenes A; for MIC: read-out: Minimum inhibition concentration MIC. An excerpt: Minimum inhibition concentration MIC in γ/ml
Germ: Streptococcus pyogenes A

Assay [2] has as its system Staphylococcus aureus 285. Description: Minimum inhibition concentration (MIC), Table 1. An excerpt:
(§1) Minimum inhibition concentration (MIC) in γ/ml
Germ: Staphylococcus aureus 285

Assay [3] has as its system Streptococcus D. Nature of the assay: Minimum inhibition concentration (MIC), Table 4. Particulars: Germ: Streptococcus D; for MIC: Streptococcus, read-out: Minimum inhibition concentration (MIC).
Description: as §1

Where [4] appears, read: Staphylococcus aureus, 285, Germ: Staphylococcus aureus 285, read-out: Minimum inhibition concentration (MIC).
Where [5] appears, read: Staphylococcus aureus, 285, read-out: Minimum inhibition concentration (MIC).

As to “3-[(5-methyl-1,3,4-thiadiazole-2-yl)-thiomethyl]-7-[4-(imidazoline-2-yl)-2-methoxyphenoxy-acetamido]-Δ3-cephem-4-carboxylic acid [Example 126]”, the “Minimum inhibition concentration (MIC)” value in assay [1] was 0.008 to 0.0156 µg/mL; in assay [2] (Germ: Staphylococcus aureus 285), 0.5 to 1.25 µg/mL; in assay [3] it was 10 to 50 µg/mL.

`CC1(C)S[C@@H]2[C@H](NC(=O)[C@H](N)c3ccccc3)C(=O)N2[C@H]1C(=O)O` [Ampicillin, reference compound]: the MIC in assay [2] (setting [4]) was 100 µg/mL (≈ 286 µM). `Cc1nnc(SCC2=C(C(=O)O)N3C(=O)[C@@H](NC(=O)Cn4cnnn4)[C@H]3SC2)s1` [Cephazolin, reference compound]: the MIC in assay [3] amounted to 100 µg/mL (≈ 220 µM). For `Cc1csc(SCC2=C(C(=O)O)N3C(=O)C(NC(=O)Cc4ccc(NC(=N)N)cc4)C3SC2)n1` (stereo not shown) [Example 7], the MIC in assay [2] (setting [4]) lay in the range of 0.5 to 1.25 µg/mL (≈ 0.964 to 2.41 µM); in assay [3] it was 10 to 50 µg/mL (≈ 19.3 to 96.4 µM). For the compound `Cc1csc(SCC2=C(C(=O)O)N3C(=O)C(NC(=O)Cc4ccc(C5=NCCN5)cc4)C3SC2)n1` (stereo not shown) [Example 10, 3-[(4-methyl-thiazole-2-yl)-thiomethyl]-7-[4-(imidazoline-2-yl)-phenylacetamido]-Δ 3-cephem-4-carboxylic acid], the MIC in assay [1] was 0.000391 to 0.0078 µg/mL (≈ 0.000738 to 0.0147 µM); in assay [2] (setting [4]), 0.5 to 1.25 µg/mL (≈ 0.944 to 2.36 µM); in assay [3] it was 10 to 50 µg/mL (≈ 18.9 to 94.4 µM). On to `Cc1csc(SCC2=C(C(=O)O)N3C(=O)C(NC(=O)Cc4ccc(C5=NCCCN5)cc4)C3SC2)n1` (stereo not shown) [Example 15, 3-[(4-methyl-thiazole-2-yl)-thiomethyl]-7-[4-(1,4,5,6-tetrahydropyrimide-2-yl)-phenylacetamido]-Δ 3-cephem-4-carboxylic acid], for which the values for the MIC in assay [2] (setting [4]) and in assay [3] were 1.6 to 2.5 µg/mL (≈ 2.94 to 4.6 µM) and 10 to 50 µg/mL (≈ 18.4 to 92 µM), respectively. As to `Cc1n[nH]c(SCC2=C(C(=O)O)N3C(=O)C(NC(=O)Cc4ccc(C5=NCCCN5)cc4)C3SC2)n1` (stereo not shown) [Example 17, 3-[(methyl-1,2,4,-triazole-3-yl)-thiomethyl]-7-[4-(1,4,5,6-tetrahydropyrimide-2-yl)-phenylacetamido]-Δ 3-cephem-4-carboxylic acid], the MIC lay in the range of 1.6 to 2.5 µg/mL (≈ 3.03 to 4.74 µM) in assay [2] (setting [4]) and 10 to 50 µg/mL (≈ 19 to 94.8 µM) in assay [3]. In the case of `N=C(N)c1ccc(OCC(=O)NC2C(=O)N3C(C(=O)O)=C(CSC4=NCCS4)CSC23)cc1` (stereo not shown) [Example 30, 3-[(Δ2-thiazolidine-2-yl)-thiomethyl]-7-(4-amidinophenoxyacetamido)-Δ3-cephem-4-carboxylic acid], the MIC lay in the range of 0.000391 to 0.0078 µg/mL (≈ 0.00077 to 0.0154 µM) in assay [1], 0.5 to 1.25 µg/mL (≈ 0.985 to 2.46 µM) in assay [2] (setting [4]) and 10 to 50 µg/mL (≈ 19.7 to 98.5 µM) in assay [3]. The matching figures for `CCCc1nnc(SCC2=C(C(=O)O)N3C(=O)C(NC(=O)COc4ccc(C5=NCCN5)cc4)C3SC2)s1` (stereo not shown) [Example 37, 3-[(5-n-propyl-1,3,4-thiadiazole-2-yl)-thiomethyl]-7-[4-(imidazoline-2-yl)-phenoxyacetamido]-Δ 3-cephem-4-carboxylic acid]: 0.000391 to 0.0078 µg/mL (≈ 0.00068 to 0.0136 µM), 0.5 to 1.25 µg/mL (≈ 0.87 to 2.18 µM) and 0.196 to 6.25 µg/mL (≈ 0.341 to 10.9 µM). Turning to `CCCc1nnc(SCC2=C(C(=O)O)N3C(=O)C(NC(=O)COc4ccc(C(=N)N)cc4)C3SC2)o1` (stereo not shown) [Example 40, 3-[(5-n-propyl-1,3,4-oxadiazole-2-yl)-thiomethyl]-7-(4-amidinophenoxyacetamido)-Δ 3-cephem-4-carboxylic acid], the MIC in assay [1] fell in the range of 0.008 to 0.0156 µg/mL (≈ 0.015 to 0.0293 µM); in assay [2] (setting [4]) it was 0.156 to 0.391 µg/mL (≈ 0.293 to 0.734 µM). In the case of `CCCc1nnc(SCC2=C(C(=O)O)N3C(=O)C(NC(=O)COc4ccc(C5=NCCN5)cc4)C3SC2)o1` (stereo not shown) [Example 41, 3-[(5-n-propyl-1,3,4-oxadiazole-2-yl)-thiomethyl]-7-[4-(imidazoline-2-yl)-phenoxyacetamido]-Δ 3-cephem-4-carboxylic acid], the MIC in assay [1] lay in the range of 0.000391 to 0.0078 µg/mL (≈ 0.0007 to 0.014 µM); in assay [2] (setting [4]), 0.5 to 1.25 µg/mL (≈ 0.895 to 2.24 µM); in assay [3] it was 10 to 50 µg/mL (≈ 17.9 to 89.5 µM).

Take `Cc1nnc(SCC2=C(C(=O)O)N3C(=O)C(NC(=O)Cc4ccc(C(=N)N)cc4)C3SC2)s1` (stereo not shown) [Example 45, 3-[(5-methyl-1,3,4-thiadiazole-2-yl)-thiomethyl]-7-(4-amidinophenylacetamido)-Δ 3-cephem-4-carboxylic acid]: the MIC was 0.000391 to 0.0078 µg/mL (≈ 0.000775 to 0.0155 µM) in assay [1] and 0.156 to 0.391 µg/mL (≈ 0.309 to 0.775 µM) in assay [2] (setting [4]). Regarding `N=C(N)c1ccc(OCC(=O)NC2C(=O)N3C(C(=O)O)=C(CSc4nnc(-c5ccccc5)o4)CSC23)cc1` (stereo not shown) [Example 48, 3-[(5-phenyl-1,3,4-oxadiazole-2-yl)-thiomethyl]-7-(4-amidinophenoxyacetamido)-Δ 3-cephem-4-carboxylic acid], the MIC in assay [2] (setting [4]) was in the range of 0.156 to 0.391 µg/mL (≈ 0.275 to 0.69 µM). In assay [3], the “Minimum inhibition concentration (MIC)” value is 0.196 to 6.25 µg/mL.

Consider `N=C(N)c1ccc(CC(=O)NC2C(=O)N3C(C(=O)O)=C(CSc4nnc(N)s4)CSC23)cc1` (stereo not shown) [Example 59, 3-[(5-amino-1,3,4-thiadiazole-2-yl)-thiomethyl]-7-(4-amidinophenylacetamido)-Δ 3-cephem-4-carboxlic acid], for which the MIC was 0.000391 to 0.0078 µg/mL (≈ 0.000773 to 0.0154 µM) in assay [1], 0.5 to 1.25 µg/mL (≈ 0.989 to 2.47 µM) in assay [2] (setting [4]) and 10 to 50 µg/mL (≈ 19.8 to 98.9 µM) in assay [3]. As for `CCCCc1nnc(SCC2=C(C(=O)O)N3C(=O)C(NC(=O)COc4ccc(C(=N)N)cc4)C3SC2)o1` (stereo not shown) [Example 66, 3-[(5-n-butyl-1,3,4-oxadiazole-2-yl)-thiomethyl]-7-(4-amidinophenoxyacetamido)-Δ 3-cephem-4-carboxylic acid], the results for the MIC in assay [1] and in assay [2] (setting [4]) were 0.008 to 0.0156 µg/mL (≈ 0.0146 to 0.0285 µM) and 0.5 to 1.25 µg/mL (≈ 0.915 to 2.29 µM), respectively.

On to `CCCCc1nnc(SCC2=C(C(=O)O)N3C(=O)C(NC(=O)COc4ccc(C(=N)N)cc4)C3SC2)s1` (stereo not shown) [Example 67, 3-[(5-n-butyl-1,3,4-thiadiazole-2-yl)-thiomethyl]-7-(4-amidinophenoxyacetamido)-Δ 3-cephem-4-carboxylic acid], for which the MIC in assay [2] (setting [4]) lay in the range of 0.5 to 1.25 µg/mL (≈ 0.889 to 2.22 µM).

For the compound `Cc1nnc(SCC2=C(C(=O)O)N3C(=O)C(NC(=O)COc4ccc(C5=NCCN5)cc4)C3SC2)o1` (stereo not shown) [Example 74, 3-[(5-methyl-1,3,4-oxadiazole-2-yl)-thiomethyl]-7-[4-(imidazoline-2-yl)-phenoxyacetamido]-Δ 3-cephem-4-carboxylic acid], the MIC in assay [1] lay within 0.008 to 0.0156 µg/mL (≈ 0.0151 to 0.0294 µM); in assay [2] (setting [4]) it was 0.5 to 1.25 µg/mL (≈ 0.942 to 2.36 µM).

On to `Cc1nnc(SCC2=C(C(=O)O)N3C(=O)C(NC(=O)COc4ccc(C5=NCCCN5)cc4)C3SC2)o1` (stereo not shown) [Example 76, 3-[(5-methyl-1,3,4-oxadiazole-2-yl)-thiomethyl]-7-[4-(1,4,5,6-tetrahydropyrimide-2-yl)-phenoxy-acetamido]-Δ 3-cephem-4-carboxylic acid], for which the results for the MIC in assay [2] (setting [4]) and in assay [3] were 0.5 to 1.25 µg/mL (≈ 0.918 to 2.3 µM) and 10 to 50 µg/mL (≈ 18.4 to 91.8 µM), respectively. With `CCCCc1nnc(SCC2=C(C(=O)O)N3C(=O)C(NC(=O)Cc4ccc(C5=NCCCN5)cc4)C3SC2)s1` (stereo not shown) [Example 77, 3-[(5-n-butyl-1,3,4-thiadiazole-2-yl)-thiomethyl]-7-[4-(1,4,5,6-tetrahydropyrimide-2-yl)-phenylacetamido]-Δ 3-cephem-4-carboxylic acid], the figures for the MIC in assay [1] and in assay [2] (setting [4]) were 0.008 to 0.0156 µg/mL (≈ 0.0136 to 0.0266 µM) and 0.5 to 1.25 µg/mL (≈ 0.852 to 2.13 µM), respectively. The matching figures for `Cc1nnc(SCC2=C(C(=O)O)N3C(=O)C(NC(=O)Cc4ccc(C5=NCCCN5)cc4)C3SC2)o1` (stereo not shown) [Example 78, 3-[(5-methyl-1,3,4-oxadiazole-2-yl)-thiomethyl]-[4-(1,4,5,6-tetrahydropyrimide-2-yl)-phenylacetamido]-Δ 3-cephem-4-carboxylic acid]: 0.008 to 0.0156 µg/mL (≈ 0.0151 to 0.0295 µM) and 0.5 to 1.25 µg/mL (≈ 0.946 to 2.36 µM). Consider `Cn1nnnc1SCC1=C(C(=O)O)N2C(=O)C(NC(=O)Cc3ccc(C4=NCCCN4)cc3)C2SC1` (stereo not shown) [Example 87, 3-[(1-methyl-1H-tetrazole-5-yl)-thiomethyl]-7-[4-(1,4,5,6-tetrahydropyrimide-2-yl)-phenylacetamido]-Δ 3-cephem-4-carboxylic acid], for which the MIC in assay [2] (setting [4]) is 1.6 to 2.5 µg/mL (≈ 3.03 to 4.73 µM). As to `N=C(N)c1ccc(CC(=O)NC2C(=O)N3C(C(=O)O)=C(CSC4=NCCS4)CSC23)cc1` (stereo not shown) [Example 90, 3-[2-thiazoline-2-yl-thiomethyl]-7-[4-amidino-phenylacetamido]-Δ 3-cephem-4-carboxylic acid], the MIC lay in the range of 0.000391 to 0.0078 µg/mL (≈ 0.000795 to 0.0159 µM) in assay [1] and 0.156 to 0.391 µg/mL (≈ 0.317 to 0.795 µM) in assay [2] (setting [4]). For `Cn1nnnc1SCC1=C(C(=O)O)N2C(=O)C(NC(=O)COc3ccc(C4=NCCCN4)cc3)C2SC1` (stereo not shown) [Example 93, 3-[(1-methyl-1-H-tetrazol-5-yl)-thiomethyl]-7-[4-(1,4,5,6-tetrahydropyrimide-2-yl)-phenoxyacetamido-]-Δ3-cephem-4-carboxylic acid], the MIC in assay [3] lay within 10 to 50 µg/mL (≈ 18.4 to 91.8 µM). With `CCc1nnc(SCC2=C(C(=O)O)N3C(=O)C(NC(=O)Cc4ccc(C5=NCCCN5)cc4)C3SC2)n1N` (stereo not shown) [Example 104, 3-[(4-amino-5-ethyl-1,2,4-triazole-3-yl)-thiomethyl]-7-[4-(1,4,5,6-tetrahydropyrimide-2-yl)-phenylacetamido-] -Δ3-cephem-4-carboxylic acid], in assay [2] (setting [4]), the MIC is 1.6 to 2.5 µg/mL (≈ 2.87 to 4.49 µM).

Regarding `Cn1ccnc1SCC1=C(C(=O)O)N2C(=O)C(NC(=O)Cc3ccc(C4=NCCN4)cc3)C2SC1` (stereo not shown) [Example 123, 3-[(1-methylimidazole-2-yl)-thiomethyl]-7-[4-(imidazoline-2-yl)-phenylacetamido]-Δ 3-cephem-4-carboxylic acid], the MIC in assay [2] (setting [4]) lay in the range of 1.6 to 2.5 µg/mL (≈ 3.12 to 4.88 µM). For `COc1cc(C(=N)N)ccc1OCC(=O)NC1C(=O)N2C(C(=O)O)=C(CSc3nccs3)CSC12` (stereo not shown) [Example 129, 3-[(1,3-thiazole-2-yl)thiomethyl]-7-(4-amidino-2-methoxy-phenoxyacetamido)-Δ3-cephem-4-carboxylic acid], the MIC in assay [1] is 0.008 to 0.0156 µg/mL (≈ 0.0149 to 0.0291 µM); in assay [2] (setting [4]), 0.156 to 0.391 µg/mL (≈ 0.291 to 0.73 µM). The matching figures for `COc1cc(C(=N)N)ccc1OCC(=O)NC1C(=O)N2C(C(=O)O)=C(CSc3nc(C)cs3)CSC12` (stereo not shown) [Example 130, 3-[(4-methyl-1,3-thiazole-2-yl)-thiomethyl]-7-(4-amidino-2-methoxy-phenoxyacetamido)-Δ3-cephem-4-carboxylic acid]: 0.008 to 0.0156 µg/mL (≈ 0.0146 to 0.0284 µM) and 0.156 to 0.391 µg/mL (≈ 0.284 to 0.711 µM). Consider `CC1(C)S[C@@H]2[C@H](NC(=O)Cc3ccccc3)C(=O)N2[C@H]1C(=O)O` [Penicillin-G-Na, reference compound], for which the MIC in assay [2] (setting [5]) was determined as 125 µg/mL (≈ 374 µM).

Regarding `CC1(C)S[C@@H]2[C@H](NC(=O)COc3ccccc3)C(=O)N2[C@H]1C(=O)O` [Penicillin-V-K, reference compound], the MIC in assay [2] (setting [5]) was 125 µg/mL (≈ 357 µM).
